Data on 17 compounds can be found in US12655150B2 (Cedilla Therapeutics, Inc., priority 2021, dated 2026).

The first experiment relates to NCI-H226. Put plainly: 72H TEAD Proliferation Assay (Cell Titer Glo 2.0). The format is cell-based. The note with it: CTG 2.0, cell line not given (NCI-H226 responsive, NCI-H28 non-responsive). As to the method:
72H TEAD Proliferation Assay.
The effect of TEAD inhibition on cell proliferation was assayed using Cell Titer Glo (CTG) 2.0 to measure response in mesothelioma cell lines NCI-H226 (ATCC, #CRL-5826) and NCI-H28 (ATCC, #CRL-5820).
The 72H TEAD Proliferation assay utilizes Cell Titer-Glo 2.0 (Promega, #G9243) to measure the proliferation of cells in the presence or absence of compound. Cell Titer-Glo 2.0 determines the amount of viable cells by quantifying ATP (an indication of metabolically active cells). It utilizes the conversion of Luciferin to Oxyluciferin and a luminescent signal with the use of ATP to report the quantity of viable cells in culture. Within cells that are continually growing, ATP is being synthesized to meet their metabolic demands, meanwhile the opposite is true for cells that are dying or slowing down their proliferation and either no longer using ATP or are using less, respectively. The NF2-deficient NCI-H226 has been genetically validated as a cell line that is sensitive to TEAD inhibition. The NF2-wild type NCI-H28 has been genetically validated as a cell line that is not sensitive to TEAD inhibition and grows independently of TEAD activity.
Compounds were screened against the responsive NCI-H226 cell line to assess the compounds' ability to inhibit TEAD and cell growth. Compounds were also screened against the non-responsive NCI-H28 cell line to ascertain whether the inhibition of cell growth was due to inhibition of the target TEAD or whether the inhibition was due to off-target cytotoxicity.
• 1) Assay ready plates (ARPs) were prepared by Echo acoustic liquid handler. […] After CTG addition, plates were placed on shaker at 800 RPM for 15 minutes at room temperature and kept in the dark. Luminescence was measured using EnVision multilabel plate reader with ultra-sensitive detection module. • 9) Data Analysis: First background luminescence (no CTG wells) was subtracted from luminescence reading of all wells, then TO luminescence was subtracted from T72 luminescence. To compare anti-proliferative effect of compounds, GI50 was obtained by fitting dose response curves with nonlinear regression curve fit.
For the compound `CC(C)(C)c1ccc(-c2nc3cc(S(C)(=N)=O)ccc3n3cccc23)cc1` (single isomer, unassigned) [I-208, (4-(4-(tert-Butyl)phenyl)pyrrolo[1,2-a]quinoxalin-7-yl)(imino)(methyl)-16-sulfanone], the GI50 lay in the range of 1 to 5 µM.

The experiment is the same for the next values; noted with them: Homo sapiens, NCI-H226, 72 h, CTG 2.0, cell line not given (NCI-H226 responsive, NCI-H28 non-responsive).
Regarding `O=C(O)c1ccc2c(c1)nc(N1CCC3(CC1)CC3)c1cncn12` [I-116, 4-(6-Azaspiro[2.5]octan-6-yl)imidazo[1,5-a]quinoxaline-7-carboxylic acid], the GI50 is more than 10 µM. Consider `O=C(O)c1ccc2c(c1)nc(N1CCC3(CCCC3)CC1)c1cccn12` [I-8, 4-(8-Azaspiro[4.5]decan-8-yl)pyrrolo[1,2-a]quinoxaline-7-carboxylic acid], for which the GI50 is not above 1 µM. As to `COc1cc(-c2ccc(C(F)(F)F)cc2)nc2cc(-c3nnc(C)[nH]3)ccc12` [I-413, 4-methoxy-7-(5-methyl-4H-1,2,4-triazol-3-yl)-2-(4-(trifluoromethyl)phenyl)quinolone], the concentration for 50% growth inhibition (GI50) is 5 to 10 µM. Same read-out and setting: the figure for `C=CC(=O)Nc1cccc2nc(-c3ccc(C(C)(C)C)cc3)c(C)cc12` [I-99, N-(2-(4-(tert-butyl)phenyl)-3-methylquinolin-5-yl)acrylamide] is more than 10 µM; for `O=C(O)c1ccc2c(c1)nc(NCCCC(F)(F)F)c1cccn12` [I-1, 4-((4,4,4-Trifluorobutyl)amino) pyrrolo[1,2-a]quinoxaline-7-carboxylic acid] it is more than 10 µM. `FC(F)(F)c1ccc(-c2nc3cc(-c4nnn[nH]4)ccc3n3cccc23)cc1` [I-184, 7-(1H-tetrazol-5-yl)-4-(4-(trifluoromethyl)phenyl)pyrrolo[1,2-a]quinoxaline] returned a GI50 of 5 to 10 µM. On to `C=CC(=O)NCc1cn2ncnc2c(-c2ccc(C(F)(F)F)cc2)n1` [I-236, N-((8-(4-(Trifluoromethyl)phenyl)-[1,2,4]triazolo[1,5-a]pyrazin-6-yl)methyl)acrylamide], for which the GI50 is not above 1 µM. On to `C=CC(=O)NCc1cn2ccnc2c(OCc2cccc(C(F)(F)F)c2)n1` [I-294, N-((8-((3-(trifluoromethyl)benzyl)oxy)imidazo[1,2-a]pyrazin-6-yl)methyl) acrylamide], for which the GI50 lay within 1 to 5 µM.

`Cc1ccc(-c2nc3cc(C(=O)O)ccc3n3cccc23)cc1` [I-45, 4-(p-Tolyl)pyrrolo[1,2-a]quinoxaline-7-carboxylic acid] yielded a GI50 of more than 10 µM.

Turning to `COc1c(C)c(-c2ccc(C(F)(F)F)cc2)nc2cc(C(=O)N[C@H](C)CO)ccc12` [I-431, (R)—N-(1-hydroxypropan-2-yl)-4-methoxy-3-methyl-2-(4-(trifluoromethyl)phenyl)quinoline-7-carboxamide], the GI50 lay in the range of 5 to 10 µM. For `C=CC(=O)NCc1cn2ccnc2c(-c2ccc(C(F)(F)F)cc2F)n1` [I-175, N-((8-(2-Fluoro-4-(trifluoromethyl)phenyl)imidazo[1,2-a]pyrazin-6-yl)methyl)acrylamide], the GI50 was not above 1 µM. As to `COc1cc(-c2ccc(C(F)(F)F)cc2)nc2cc(NC(=O)[C@@H](CO)c3ccccc3)ccc12` [I-376, (R)-3-Hydroxy-N-(4-methoxy-2-(4-(trifluoromethyl)phenyl)quinolin-7-yl)-2-phenylpropanamide], the 50% growth inhibitory concentration (GI50) was 1 to 5 µM.

The compound `O=C(O)c1ccc2c(c1)nc(OCc1cccc(C(F)(F)F)c1)c1cccn12` [I-131, 4-((3-(Trifluoromethyl)benzyl)oxy)pyrrolo[1,2-a]quinoxaline-7-carboxylic acid] came in with a GI50 of more than 10 µM. Regarding `O=C(O)c1ccc2c(c1)nc(-c1ccc(F)cc1F)c1cccn12` [I-44, 4-(2,4-Difluorophenyl)pyrrolo[1,2-a]quinoxaline-7-carboxylic acid], the GI50 is more than 10 µM.

`COc1cc(-c2ccc(C(F)(F)F)cc2)nc2cc(C(=O)NC3(CO)CC3)ccc12` [I-353, N-(1-(hydroxymethyl)cyclopropyl)-4-methoxy-2-(4-(trifluoromethyl)phenyl)quinoline-7-carboxamide] displayed a GI50 of 1 to 5 µM. For the compound `O=C(O)c1ccc2ccc(-c3ccc(C(F)(F)F)cc3)nc2c1` [I-403, 2-(4-(trifluoromethyl)phenyl)quinoline-7-carboxylic acid], the GI50 was in the range of 1 to 5 µM.
